Results as given in article PMC7725003, “Systematically Studying the Optimal Amino Acid Distribution Patterns of the Amphiphilic Structure by Using the Ultrashort Amphiphiles” (Frontiers in Microbiology, 2020).
Where no end group is shown, it is not given here.

Columns and labels:
E. coli 25922 = format: cell-based, Escherichia coli; conditions: 25922, 24 h
Outline: (§1)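 MIC = lowest peptide concentration giving 95% growth inhibition (A492) after 24 h at 37°C in MHB, inoculum 0.5–1 × 10^6 CFU mL^–1. Peptides serially diluted in 0.2% BSA. MBC = lowest concentration killing >99.9% of cells on overnight agar plating.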

E. coli O78 = format: cell-based, Escherichia coli; conditions: O78, 24 h
Outline: as §1

E. coli UB1005 = format: cell-based, Escherichia coli; conditions: UB1005, 24 h
Outline: as §1

S. typhimurium 14028 = format: cell-based, Salmonella typhimurium; conditions: 14028, 24 h
Outline: as §1

S. typhimurium 7731 = format: cell-based, Salmonella typhimurium; conditions: 7731, 24 h
Outline: as §1

S. pullorum 7913 = format: cell-based, Salmonella pullorum; conditions: 7913, 24 h
Outline: as §1

P. aeruginosa 27853 = format: cell-based, Pseudomonas aeruginosa; conditions: 27853, 24 h
Outline: as §1

E. coli K88 = conditions: for MIC: MHB, 24 h 37°C, 95% growth inhibition; for MBC: value in brackets, >99.9% of cells killed
Outline: (§2)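 Peptides were serially diluted in 0.2% BSA and added to mid-logarithmic cells diluted in MHB to 0.5–1 × 10^6 CFU mL^–1. Assays followed an adapted NCCLS protocol.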

E. coli K99 = conditions: for MIC: MHB, 24 h 37°C, 95% growth inhibition
Outline: as §2

Gram-negative bacteria [1] = conditions: for GM MIC: geometric mean of MICs, 9 Gram-negative strains (Table 2); for TI, Gram-negative bacteria: therapeutic index TI = MHC/GM MIC
Outline: (§3)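 Broth microdilution adapted from NCCLS: mid-log bacteria diluted in MHB to 0.5–1 × 10^6 CFU mL^–1, mixed with peptides serially diluted in 0.2% BSA. After 24 h at 37°C, MIC taken as the lowest concentration inhibiting 95% of growth by absorbance at 492 nm. Assays repeated more than 3 times.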

Gram-positive bacteria [2] = conditions: for GM MIC: geometric mean of MICs, 7 Gram-positive strains (Table 2); for TI, Gram-positive bacteria: therapeutic index TI = MHC/GM MIC
Outline: as §3

S. aureus 25923 = format: cell-based, Staphylococcus aureus; conditions: 25923, 24 h
Outline: as §1

S. aureus 29213 [3] = format: cell-based, Staphylococcus aureus; conditions: 29213, 24 h
Outline: as §1

S. epidermidis 12228 = format: cell-based, Staphylococcus epidermidis; conditions: 12228, 24 h
Outline: as §1

MRSA 43300 = format: cell-based, methicillin-resistant S. aureus; conditions: 43300, 24 h
Outline: as §1

B. subtilis 63501 = format: cell-based, Bacillus subtilis; conditions: 63501, 24 h
Outline: as §1

E. faecalis 29212 = format: cell-based, Enterococcus faecalis; conditions: 29212, 24 h
Outline: as §1

[4] = tested on: Listeria monocytogenes CGMCC 1.1075; format: cell-based; conditions: CGMCC 1.1075, 24 h
Outline: as §1

[5] = tested on: all of the tested bacterial strains; experiment: Geometric mean of MICs, all tested bacterial strains; format: cell-based; conditions: for GM, All: geometric mean of MICs across all tested strains; for TI, All: therapeutic index TI = MHC/GM MIC
Outline: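 Mid-log bacteria at 0.5–1 × 10^6 CFU mL^–1 in MHB with peptides serially diluted in 0.2% BSA, 24 h at 37°C. MIC is the lowest concentration giving 95% growth inhibition by A492. MBC is the lowest giving >99.9% kill on agar subculture, and the GM is taken over all strains.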

E. coli ATCC 25922 = experiment: Salt sensitivity assay (MIC); format: cell-based, Escherichia coli; conditions: for MIC, FeCl3: 4 μM FeCl3; for MIC, NH4Cl: 6 μM NH4Cl; for MIC, ZnCl2: 8 μM ZnCl2; for MIC, MgCl2: 1 mM MgCl2; for MIC, CaCl2: 2 mM CaCl2; for MIC, KCl: 4.5 mM KCl; for MIC, NaCl: 150 mM NaCl; for MIC, Control: no added salt, three independent assays
Outline: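 The salt sensitivity of peptides was tested against E. coli ATCC 25922 using a modified NCCLS broth microdilution MIC method. Mid-log bacteria were diluted in MHB to 0.5–1 × 10^6 CFU mL^–1 and mixed in equal volumes with peptides serially diluted in 0.2% BSA in 96-well plates. Physiological salt was added where specified, and the assay was done three independent times.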

S. aureus 29213 [6] = experiment: Salt sensitivity assay (MIC); format: cell-based, Staphylococcus aureus; conditions: for MIC, FeCl3: 4 μM FeCl3; for MIC, NH4Cl: 6 μM NH4Cl; for MIC, ZnCl2: 8 μM ZnCl2; for MIC, MgCl2: 1 mM MgCl2; for MIC, CaCl2: 2 mM CaCl2; for MIC, KCl: 4.5 mM KCl; for MIC, NaCl: 150 mM NaCl; for MIC, Control: no added salt, three independent assays
Outline: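 MICs determined by broth microdilution in MHB with 0.5–1 × 10^6 CFU/mL, peptides serially diluted in 0.2% BSA, 24 h at 37°C. Medium supplemented with physiological salts (150 mM NaCl, 4.5 mM KCl, 6 μM NH4Cl, 8 μM ZnCl2, 1 mM MgCl2, 2mM CaCl2, 4 μM FeCl3). MIC = lowest concentration inhibiting 95% growth (A492).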

Gram-negative bacteria [7] = conditions: geometric mean of MBCs, 9 Gram-negative strains (Table 2)
Gram-positive bacteria [8] = conditions: geometric mean of MBCs, 7 Gram-positive strains (Table 2)

LRRRRLLLL-NH2 [L11] gave an MIC (E. coli 25922) greater than 64 µM, an MBC (E. coli O78) of 128 µM and an MIC (E. coli O78) of 64 µM. For the same substance, the MIC (E. coli UB1005) was greater than 64 µM, the MIC (S. typhimurium 14028) was greater than 64 µM and the MIC (S. typhimurium 7731) was greater than 64 µM. For the same substance, the MIC (S. pullorum 7913) was greater than 64 µM, the MIC (P. aeruginosa 27853) was greater than 64 µM and the MIC (E. coli K88) was 32 µM. For the same substance, the MBC (E. coli K88) was 64 µM, the MIC (E. coli K99) was greater than 64 µM and the “GM MIC” value (Gram-negative bacteria [1]) was 101.59 µM. The “TI, Gram-negative bacteria” value (Gram-negative bacteria [1]) was 2.52, the “GM MIC” value (Gram-positive bacteria [2]) was 57.97 µM and the “TI, Gram-positive bacteria” value (Gram-positive bacteria [2]) was 4.42. The MIC (S. aureus 25923) was greater than 64 µM, the MIC (S. aureus 29213 [3]) was greater than 64 µM and the MIC (S. epidermidis 12228) was greater than 64 µM. For the same substance, the MIC (MRSA 43300) was greater than 64 µM, the MBC (B. subtilis 63501) was 16 µM and the MIC (B. subtilis 63501) was 8 µM. For the same substance, the MIC (E. faecalis 29212) was greater than 64 µM, the MBC [4] was 16 µM and the MIC [4] was 8 µM. For the same substance, the “GM, All” value [5] was 79.48 µM, the “TI, All” value [5] was 3.22 and the MIC, FeCl3 (E. coli ATCC 25922) was greater than 64 µM. It also gave an MIC, NH4Cl (E. coli ATCC 25922) greater than 64 µM, an MIC, ZnCl2 (E. coli ATCC 25922) greater than 64 µM and an MIC, MgCl2 (E. coli ATCC 25922) greater than 64 µM. For the same substance, the MIC, CaCl2 (E. coli ATCC 25922) was greater than 64 µM, the MIC, KCl (E. coli ATCC 25922) was greater than 64 µM and the MIC, NaCl (E. coli ATCC 25922) was greater than 64 µM. It also gave an MIC, Control (E. coli ATCC 25922) greater than 64 µM, an MIC, FeCl3 (S. aureus 29213 [6]) greater than 64 µM and an MIC, NH4Cl (S. aureus 29213 [6]) greater than 64 µM. It also gave an MIC, ZnCl2 (S. aureus 29213 [6]) greater than 64 µM, an MIC, MgCl2 (S. aureus 29213 [6]) greater than 64 µM and an MIC, CaCl2 (S. aureus 29213 [6]) greater than 64 µM. For the same substance, the MIC, KCl (S. aureus 29213 [6]) was greater than 64 µM, the MIC, NaCl (S. aureus 29213 [6]) was greater than 64 µM and the MIC, Control (S. aureus 29213 [6]) was greater than 64 µM. For the same substance, the “GM MBC” value (Gram-negative bacteria [7]) was 118.51 µM and the “GM MBC” value (Gram-positive bacteria [8]) was 70.66 µM.
With RLLLLRRLR-NH2 [L10] the MBC (E. coli 25922) was 64 µM, the MIC (E. coli 25922) was 32 µM and the MBC (E. coli O78) was 32 µM. For the same substance, the MIC (E. coli O78) was 16 µM, the MIC (E. coli UB1005) was greater than 64 µM and the MIC (S. typhimurium 14028) was greater than 64 µM. For the same substance, the MBC (S. typhimurium 7731) was 128 µM, the MIC (S. typhimurium 7731) was 64 µM and the MIC (S. pullorum 7913) was greater than 64 µM. It also gave an MBC (P. aeruginosa 27853) of 64 µM, an MIC (P. aeruginosa 27853) of 32 µM and an MIC (E. coli K88) of 32 µM. For the same substance, the MBC (E. coli K88) was 64 µM, the MIC (E. coli K99) was 4 µM and the MBC (E. coli K99; value in brackets, >99.9% of cells killed) was 8 µM. The “GM MIC” value (Gram-negative bacteria [1]) was 40.32 µM, the “TI, Gram-negative bacteria” value (Gram-negative bacteria [1]) was 6.35 and the “GM MIC” value (Gram-positive bacteria [2]) was 70.66 µM. The “TI, Gram-positive bacteria” value (Gram-positive bacteria [2]) was 3.62, the MIC (S. aureus 25923) was greater than 64 µM and the MIC (S. aureus 29213 [3]) was greater than 64 µM. It also gave an MIC (S. epidermidis 12228) greater than 64 µM, an MIC (MRSA 43300) greater than 64 µM and an MBC (B. subtilis 63501) of 32 µM. It also gave an MIC (B. subtilis 63501) of 16 µM, an MIC (E. faecalis 29212) greater than 64 µM and an MBC [4] of 32 µM. For the same substance, the MIC [4] was 16 µM, the “GM, All” value [5] was 51.54 µM and the “TI, All” value [5] was 4.97. The MIC, FeCl3 (E. coli ATCC 25922) was 32 µM, the MIC, NH4Cl (E. coli ATCC 25922) was 32 µM and the MIC, ZnCl2 (E. coli ATCC 25922) was 32 µM. The MIC, MgCl2 (E. coli ATCC 25922) was 32 µM, the MIC, CaCl2 (E. coli ATCC 25922) was 32 µM and the MIC, KCl (E. coli ATCC 25922) was 32 µM. For the same substance, the MIC, NaCl (E. coli ATCC 25922) was 32 µM, the MIC, Control (E. coli ATCC 25922) was 32 µM and the MIC, FeCl3 (S. aureus 29213 [6]) was greater than 64 µM. The MIC, NH4Cl (S. aureus 29213 [6]) was greater than 64 µM, the MIC, ZnCl2 (S. aureus 29213 [6]) was greater than 64 µM and the MIC, MgCl2 (S. aureus 29213 [6]) was greater than 64 µM. It also gave an MIC, CaCl2 (S. aureus 29213 [6]) greater than 64 µM, an MIC, KCl (S. aureus 29213 [6]) greater than 64 µM and an MIC, NaCl (S. aureus 29213 [6]) greater than 64 µM. For the same substance, the MIC, Control (S. aureus 29213 [6]) was greater than 64 µM, the “GM MBC” value (Gram-negative bacteria [7]) was 64.00 µM and the “GM MBC” value (Gram-positive bacteria [8]) was 86.14 µM.
